The assay has as its system A549 cancer cells. Kind of assay: Lactic acid concentration-decreasing effect in A549 cell culture (lactate assay, luminescence, normalised to cell number). Format: cell-based, human. The settings on record: 50 μM candidate substance, 24 hours, compared with the positive control (50 μM sodium oxamate), average of 3 experiments. The procedure:
To this end, first, A549 cancer cells (adenocarcinomic human alveolar basal epithelial cells, Cat #CCL-185) obtained from the American Type Culture Collection (ATCC) were cultured in RPMI 1640 culture medium containing 10% fetal bovine serum and 1% antibiotic-antimycotic agent under an environment at 37° C. and 5% CO2, and passages were performed every 3 days. Lactic acid is produced in large amounts when glycolysis is activated in hypoxia. Cancer cells, which are densely packed with cells, are very active in energy-consuming activities, and thus are known to produce lactic acid in large amounts.
The cells were seeded in 24-well plates at a concentration of 3×10^5 cells/well, and incubation was performed overnight. Then, each plate was treated with each of the candidate substances (at a concentration of 50 μM) as shown in Table 1 which had been dissolved in dimethyl sulfoxide (DMSO). Incubation was further performed for 24 hours. For the negative control for the candidate substances, no treatment was performed; and for the positive control, treatment with sodium oxamate, which is conventionally known as a therapeutic agent for lactic acidosis, was performed at the same concentration (50 μM) or the […] higher concentration (50 mM). Subsequently, 50 μl of the cell culture solution obtained by being diluted with Dulbecco's Phosphate-Buffered Saline (DPBS), and 50 μl of the lactate assay reaction buffer (Promega, Madison, Wis., USA) were mixed and the mixture was added in a 96-well plate. Reaction was allowed to proceed at room temperature for 1 hour. Then, luminescence was measured with a spectrophotometer (Synergy HTX Multi-Reader, BioTek). At the same time, the number of cells in each sample was measured with a cell viability analysis kit (Cell Counting Kit-8), and calculation was performed so that the lactic acid measurement value in each sample could be compared with that in the negative control for the same number of cells.

Molecules are shown by their SMILES.

`Nc1c(O)cccc1C(=O)CC(N)C(=O)O` (racemic) [3-hydroxy-DL-kynurenine, 3-Hydroxy-DL-kynurenine]: the “lactic acid concentration-decreasing effect” value is listed as “about 20%”.

On to `N.N.[Cl][Pt][Cl]` [cis-diamminedichloridoplatinum, Cis-diamminedichloridoplatinum], for which the “lactic acid concentration-decreasing effect” value is “about 15%”.

With `CCN(CC)c1ccc(C=O)cc1` [diethylaminobenzaldehyde, Diethylaminobenzaldehyde], the “lactic acid concentration-decreasing effect” value was “about 20%”.

For `C=C(OP(=O)([O-])O)C(=O)O.O.[Na+]` [Phospho(enol)pyruvic acid monosodium salt hydrate], the “lactic acid concentration-decreasing effect” value is recorded as “about 15%”.

The values above are taken from patent US20220105053A1, “PHARMACEUTICAL COMPOSITION FOR PREVENTION OR TREATMENT OF ACIDOSIS” (HAIM BIO CO., LTD., priority 2018, published 2022).
